Assay results taken from patent US6277418A, “Corn extract contraceptive” (Baylor College of Medicine, priority 1999, dated 2001).

What was measured:
[1] = test system: MCF-7 (ER+) human breast cancer cells; assay: MCF-7 cell proliferation (cell number); type: cell-based
Description: An aliquot of the GCCB crude extract was fractionated on a Spice C18 Cartridge (a reverse phase column using aliphatic groups attached to a matrix to form a hydrophobic adsorbent. Rainin Instruments Company). Briefly, a GCCB extract in 20% methanol in water was loaded onto a spice cartridge and the pass through (20% methanol) fraction was collected. The column was sequentially eluted with a solution of water comprising 40%, 60%, and 80% methanol in water. The final elution was with 100% methanol. Each fraction, including the pass through fraction, was collected and dried at 50° C. under nitrogen to remove methanol. The eluate was re-dissolved in 100% ethanol. […] Six days following treatment, cell number was determined by hemocytometer counts and results are expressed as cell number in treated wells relative to ethanol controls (100%) as described (B. M. Markaverich et al., J. Steroid Biochem. 29:71-78, 1988; B. M. Markaverich et al., Cancer Res. 50: 1470-1478, 1990; B. M. Markaverich et al., JBC 263: 7203-7210, 1988; B. M. Markaverich et al., Internat. J. Oncol. 4:1291-1300, 1994).
In a further study, the effects of fractionated GCCB extract on the proliferation of the MCF-7 and MDA-231 human breast cancer cells were analyzed. […] Six days following treatment, cell number (% Control) was determined. […]
Cell number was determined 6 days following treatment. […]

estrogen receptor = molecular target: T1, estrogen receptor (Rattus norvegicus, UniProt P06211); assay: [3H]estradiol binding to estrogen receptor in rat uterine cytosol; details: 10 nM [3H]estradiol, extracts rediluted 1:1000, 1-50 μl
T1 sequence (P06211 1-600): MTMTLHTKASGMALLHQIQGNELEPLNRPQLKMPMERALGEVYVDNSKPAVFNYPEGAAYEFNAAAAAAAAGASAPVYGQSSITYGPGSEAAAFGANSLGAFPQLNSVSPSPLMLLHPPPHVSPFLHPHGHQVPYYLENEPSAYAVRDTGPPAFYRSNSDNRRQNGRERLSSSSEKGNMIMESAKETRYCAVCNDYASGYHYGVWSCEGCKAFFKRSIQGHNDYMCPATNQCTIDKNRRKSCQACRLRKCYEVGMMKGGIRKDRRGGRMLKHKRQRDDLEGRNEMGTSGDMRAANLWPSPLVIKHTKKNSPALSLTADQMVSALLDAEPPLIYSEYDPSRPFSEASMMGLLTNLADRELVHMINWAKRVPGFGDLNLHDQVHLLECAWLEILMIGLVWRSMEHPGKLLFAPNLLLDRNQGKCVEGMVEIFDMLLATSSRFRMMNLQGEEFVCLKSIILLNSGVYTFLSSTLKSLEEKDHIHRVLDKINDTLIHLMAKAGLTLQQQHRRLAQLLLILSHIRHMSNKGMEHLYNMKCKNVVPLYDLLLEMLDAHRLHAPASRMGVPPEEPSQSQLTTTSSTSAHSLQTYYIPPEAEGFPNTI

Compound | inhibition of MCF-7 proliferation by antiestrogen alone ([1]; 10 nM, in the absence of estrogen, 6 days) | inhibition at 0.01 µM ([1]; Homo sapiens, MCF7, 144 h, read-out: block of the estradiol-induced stimulation of MCF-7 cell proliferation) | competition for [3H]estradiol binding to estrogen receptor (estrogen receptor)
C[C@]12CC[C@@H]3c4ccc(O)cc4C[C@@H](CCCCCCCCC[S+]([O-])CCCC(F)(F)C(F)(F)F)[C@H]3[C@@H]1CC[C@@H]2O (stereo partly drawn) [ICI-182,780] | failed to inhibit | > 50% | –
O=c1c(-c2ccc(O)cc2)coc2cc(O)ccc12 [daidzein] | – | – | competitively inhibit
